In PubChem BioAssay (NCI):
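How tested: cells in 96-well plates exposed to compound for 48 hours at five concentrations. GI50: concentration for 50% inhibition of growth. The concentration for full growth arrest is given as TGI.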

Experiments:
Experiment in all cases: NCI-60 cell line screen, 48 h
[1] = system: HS 578T breast
[2] = system: UACC-257 melanoma
[3] = system: M14 melanoma
[4] = system: HL-60(TB) leukemia
[5] = system: UACC-62 melanoma
[6] = system: T-47D breast
[7] = system: SF-295 CNS
[8] = system: HCC-2998 colon
[9] = system: A498 renal
[10] = system: DU-145 prostate
[11] = system: SN12C renal
[12] = system: EKVX NSCLC
[13] = system: UO-31 renal
[14] = system: SK-MEL-5 melanoma
[15] = system: NCI-H522 lung
[16] = system: K-562 leukemia
[17] = system: 786-0 renal
[18] = system: CCRF-CEM leukemia
[19] = system: HCT-116 colon
[20] = system: MOLT-4 leukemia
[21] = system: MALME-3M melanoma
[22] = system: CAKI-1 renal
[23] = system: COLO 205 colon
[24] = system: MCF7 breast
[25] = system: LOX IMVI melanoma
[26] = system: MDA-MB-231 breast
[27] = system: OVCAR-5 ovarian
[28] = system: BT-549 breast
[29] = system: SR leukemia

How did the GI50 [1] turn out when `CN1CCN(c2ccc3nc(-c4c5cccccc-5[nH]c4=O)[nH]c3c2)CC1` was run?
Its GI50 is 13 µM.

And the TGI [1]?
The TGI was greater than 100 µM.

And the GI50 [2]?
Its GI50 is 17.6 µM.

And the TGI [2]?
Its TGI is 35.3 µM.

And the GI50 [3]?
Its GI50 is 13.3 µM.

What about the TGI [3] of the same compound?
The TGI was 27.8 µM.

And the GI50 [4]?
The GI50 was 13.7 µM.

What about the TGI [4] of the same compound?
The TGI was 33.5 µM.

And the GI50 [5]?
Its GI50 is 19.6 µM.

And the TGI [5]?
The TGI was 43.4 µM.

What about the GI50 [6] of the same compound?
The GI50 was 30.8 µM.

What about the TGI [6] of the same compound?
Its TGI is greater than 91.7 µM.

What about the GI50 [7] of the same compound?
Its GI50 is 20.3 µM.

And the TGI [7]?
The TGI was greater than 76.5 µM.

And the GI50 [8]?
The GI50 was 13.7 µM.

And the TGI [8]?
Its TGI is 37 µM.

What about the GI50 [9] of the same compound?
The GI50 was 4.77 µM.

What about the TGI [9] of the same compound?
Its TGI is 21.4 µM.

And the GI50 [10]?
The GI50 was 9.67 µM.

And the TGI [10]?
The TGI was 35.8 µM.

And the GI50 [11]?
The GI50 was 5.37 µM.

What about the TGI [11] of the same compound?
Its TGI is greater than 80.9 µM.

And the GI50 [12]?
The GI50 was 29.4 µM.

And the TGI [12]?
Its TGI is greater than 100 µM.

And the GI50 [13]?
Its GI50 is 3.53 µM.

And the TGI [13]?
The TGI was 52.9 µM.

What about the GI50 [14] of the same compound?
Its GI50 is 14.8 µM.

And the TGI [14]?
The TGI was 28.3 µM.

What about the GI50 [15] of the same compound?
The GI50 was 15.6 µM.

And the TGI [15]?
The TGI was greater than 46.8 µM.

And the GI50 [16]?
Its GI50 is 10.6 µM.

What about the TGI [16] of the same compound?
The TGI was 53.4 µM.

And the GI50 [17]?
Its GI50 is 11.2 µM.

What about the TGI [17] of the same compound?
Its TGI is 46.6 µM.

What about the GI50 [18] of the same compound?
Its GI50 is 10.1 µM.

And the TGI [18]?
Its TGI is greater than 84.1 µM.

What about the GI50 [19] of the same compound?
Its GI50 is 9.55 µM.

And the TGI [19]?
The TGI was 25.5 µM.

What about the GI50 [20] of the same compound?
Its GI50 is 3.49 µM.

And the TGI [20]?
The TGI was 22.3 µM.

What about the GI50 [21] of the same compound?
The GI50 was 14.6 µM.

And the TGI [21]?
Its TGI is 31 µM.

And the GI50 [22]?
The GI50 was 7.29 µM.

What about the TGI [22] of the same compound?
The TGI was greater than 62.1 µM.

What about the GI50 [23] of the same compound?
Its GI50 is 8.39 µM.

What about the TGI [23] of the same compound?
The TGI was 22.2 µM.

What about the GI50 [24] of the same compound?
Its GI50 is 6.27 µM.

And the TGI [24]?
Its TGI is 32.1 µM.

And the GI50 [25]?
The GI50 was 7.78 µM.

And the TGI [25]?
Its TGI is 22.4 µM.

What about the GI50 [26] of the same compound?
The GI50 was 11.8 µM.

And the TGI [26]?
Its TGI is 36.7 µM.

And the GI50 [27]?
Its GI50 is 15.9 µM.

What about the TGI [27] of the same compound?
The TGI was 52.1 µM.

What about the GI50 [28] of the same compound?
The GI50 was 13.4 µM.

And the TGI [28]?
The TGI was 66 µM.

And the GI50 [29]?
The GI50 was 12.7 µM.

What about the TGI [29] of the same compound?
The TGI was 49.5 µM.
